Measurements reported in publication PMC10859675, “Short‐chain mono‐carboxylates as negative modulators of allosteric transitions in Gloeobacter violaceus ligand‐gated ion channel, and impact of a pre‐β5 strand (Loop Ω) double mutation on crotonate, not butyrate effect” (Physiological Reports, 2024).
Values joined by “and” are separate entries in the source; they are usually repeats but may differ in a detail not shown here. Identical values can stand only once. Like-named read-outs stand apart in the source and are kept apart here.

Tests used:
[1] = biological target: T1, WT GLIC (Gloeobacter violaceus, UniProt Q7NDN8); experiment: Whole-cell patch-clamp, protocol with pre-stimulation at low pHo, WT GLIC expressed in tk-ts13 cells; assay type: cell-based; conditions: for current in the presence of mono-CBX, % of control: 1 mM at pHo 5.0, WT sample of Figure 7, mean; for current in the presence of mono-CBX, % of control (100*I CBX/I CONTROL): 1 mM at pHo 5.0, WT sample of Figures 4 and 5, mean; for current in the presence of di-CBX, % of control: 10 mM at pHo 5.0, mean; for activity on GLIC current (NAM effect): 1 mM with pre-stimulation, pHo 5.0; for reversibility of negative modulation (slow components): after compound wash-out
T1 construct: expressed in transfected cells; host or cells: tk-ts13 cells, GLIC DNA in pMT3 vector
T1 sequence (Q7NDN8 44-359): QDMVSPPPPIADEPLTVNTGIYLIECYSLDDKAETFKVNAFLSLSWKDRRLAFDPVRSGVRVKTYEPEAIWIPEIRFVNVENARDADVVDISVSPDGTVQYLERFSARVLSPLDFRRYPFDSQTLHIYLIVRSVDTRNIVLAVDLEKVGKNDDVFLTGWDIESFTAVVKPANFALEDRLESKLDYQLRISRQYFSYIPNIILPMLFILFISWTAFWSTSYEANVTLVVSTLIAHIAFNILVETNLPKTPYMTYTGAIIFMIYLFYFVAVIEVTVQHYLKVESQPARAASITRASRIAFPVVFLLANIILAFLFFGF
Protocol: We give here the main points and some differences.
All solutions were prepared from the acid forms of the buffers/acido‐basic compounds (BAPTA, HEPES, MES, CBX, etc.). Stock 100 mmol/L (mM) mono‐CBX water solutions were prepared directly at pH 5 (NaOH/HCl), aliquoted and kept at −20°C.
Fit of concentration‐effect curves. For proton activation curves, the peak value (Ipk[pHo]; inward current value at maximal absolute value) within 30 s was considered (y), and a plot against H^+ activity value (x) was fitted with a 3‐parameter Hill equation: y=ymax*1/1+EC50nH/x^nH , giving I max, EC50, and pH50 = −log(EC50). For potentiation/inhibition, data for [percent of control current] in the presence of the compound (y = 100*I CBX/I CONTROL) to [compound concentration value] […] For most compounds are presented: a fit of the mean of data (Graphs), and the mean ± standard deviation (SD) of data from individual cells (values in text).

[2] = biological target: T1, WT GLIC; experiment: Whole-cell patch-clamp, direct protocol (pHo jump and compound applied simultaneously), WT GLIC in tk-ts13 cells; assay type: cell-based; conditions: 1 mM at pHo 5.0, direct protocol, individual cells; for ratio of peak current values in the presence and in the absence of compound (Ipk[CBX@5.0]/Ipk[pHo 5.0]): first CBX application; for current decay (h) time constant: m^4 h fit
Description: A direct protocol, where a pHo‐jump (from control pHo 7.5) and compound addition are applied simultaneously, was first used to examine the influence of saturated, short‐chain mono‐CBX compounds on low pHo‐induced GLIC current (Figure 1a).

[3] = biological target: T2, GLIC E181A (Gloeobacter violaceus, UniProt Q7NDN8, E223A); assay type: cell-based; conditions: 1 mM at pHo 5.0, versus WT GLIC
T2 construct: expressed in transfected cells; host or cells: tk-ts13 cells, pMT3 vector
T2 sequence (Q7NDN8 44-359 E223A): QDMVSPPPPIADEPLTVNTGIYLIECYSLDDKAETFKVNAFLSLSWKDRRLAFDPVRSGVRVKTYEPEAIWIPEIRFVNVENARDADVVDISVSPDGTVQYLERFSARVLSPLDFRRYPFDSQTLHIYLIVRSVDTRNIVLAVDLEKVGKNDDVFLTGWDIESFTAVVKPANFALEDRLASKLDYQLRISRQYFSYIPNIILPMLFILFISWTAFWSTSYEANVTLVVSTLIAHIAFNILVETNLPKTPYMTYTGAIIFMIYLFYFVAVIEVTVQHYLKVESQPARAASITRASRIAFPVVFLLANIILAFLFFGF
Protocol: (§1) ACET (Figure 4) and the 4‐carbon compounds BUTYR and CROTON (Figure 5) were tested on the CBX‐pockets single mutants, at 1 mM with pre‐stimulation at pHo 5.0.

[4] = biological target: T3, GLIC R133A (Gloeobacter violaceus, UniProt Q7NDN8, R175A); experiment: Whole-cell patch-clamp, direct protocol, GLIC R133A
T3 sequence (Q7NDN8 44-359 R175A): as the sequence (Q7NDN8 44-359 E223A) above, with R132A, A180E counted along it

[5] = test system: GLIC [AA + CBX‐pocket] triple mutants; experiment: Whole-cell patch-clamp with pre-stimulation, [AA + CBX-pocket] triple mutants; conditions: 1 mM at pHo 5.0, compared to AA double mutant
Protocol: (§3) Nuclear injection of DNA was done on the day of reception of oocytes. […] Transfection was done within 24 h after cell seeding, using the DNA‐calcium phosphate co‐precipitation method. GFP‐positive cells were used for electrophysiology 1–2 days after transfection (tk‐ts13 cells), or 1–3 days after nuclear injection (oocytes). A mixture of DNAs coding for GLIC and GFP in separate pMT3 vectors was used, with amounts of [2 + 0.2] μg per 35 mm dish for transfections, or [0.04 + 0.02] g/L in water for injections.
(§4) The intracellular pipette solution was composed of (in mM): CsCl 150, MgCl2 1, HEPES 10, BAPTA 10, CsOH to pH 7.3. […] Lower pH values were reached by adding to this solution HCl 2 M in water (and more pH 7.5 solution to return pH up if necessary). […] A 3 M KCl, 5 g/L agar bridge was used to connect the reference electrode to the dish solution. […] Electric current flowing through the membrane from extracellular to intracellular face (inward current) is counted negative, and represented downwards in the figures. […]
(§5) Positive/negative modulation was evaluated as current in the presence of the compound, in percent of the control GLIC current value measured immediately before compound application (with a correction for GLIC current decay only for small inhibitions). […]

[6] = biological target: GLIC AA‐N152A (Gloeobacter violaceus, UniProt Q7NDN8, D128A/D130A/N194A); experiment: Whole-cell patch-clamp with pre-stimulation, GLIC AA-N152A; conditions: CROTON 1 mM at pHo 5.0, single exponential fit
Sequence of GLIC AA‐N152A (Q7NDN8 44-359 D128A/D130A/N194A): as the sequence (Q7NDN8 44-359 E223A) above, with D85A, D87A, N151A, A180E counted along it
Protocol: as §3, §4, §5

[7] = biological target: T4, GLIC N152A (Gloeobacter violaceus, UniProt Q7NDN8, N194A); assay type: cell-based; conditions: 1 mM at pHo 5.0, mean
T4 construct: expressed in transfected cells; host or cells: tk-ts13 cells, pMT3 vector
T4 sequence (Q7NDN8 44-359 N194A): as the sequence (Q7NDN8 44-359 E223A) above, with N151A, A180E counted along it
Description: (§2) Compound modulation of the D86A‐D88A pre‐β5 variant (AA), N152A mutant and WT GLIC, was investigated in the protocol with pre‐stimulation at pHo 5.0 (Figure 7).

[8] = biological target: T5, GLIC D86A‐D88A (Gloeobacter violaceus, UniProt Q7NDN8, D128A/D130A); assay type: cell-based; conditions: 1 mM at pHo 5.0, Figure 7 sample, mean
T5 construct: expressed in transfected cells; host or cells: tk-ts13 cells, pMT3 vector
T5 sequence (Q7NDN8 44-359 D128A/D130A): as the sequence (Q7NDN8 44-359 E223A) above, with D85A, D87A, A180E counted along it
Description: as §2

[9] = biological target: T3, GLIC R133A; assay type: cell-based; design: expressed in transfected cells; host or cells: tk-ts13 cells, pMT3 vector; conditions: 1 mM at pHo 5.0, mean
Protocol: as §1

[10] = biological target: T6, GLIC E177A (Gloeobacter violaceus, UniProt Q7NDN8, E219A); assay type: cell-based; conditions: 1 mM at pHo 5.0, mean
T6 construct: expressed in transfected cells; host or cells: tk-ts13 cells, pMT3 vector
T6 sequence (Q7NDN8 44-359 E219A): as the sequence (Q7NDN8 44-359 E223A) above, with E176A, A180E counted along it
Protocol: as §1

[11] = biological target: T7, GLIC R77A (Gloeobacter violaceus, UniProt Q7NDN8, R119A); assay type: cell-based; conditions: 1 mM at pHo 5.0, mean
T7 construct: expressed in transfected cells; host or cells: tk-ts13 cells, pMT3 vector
T7 sequence (Q7NDN8 44-359 R119A): as the sequence (Q7NDN8 44-359 E223A) above, with R76A, A180E counted along it
Protocol: as §1

[12] = biological target: T8, GLIC Y102A (Gloeobacter violaceus, UniProt Q7NDN8, Y144A); assay type: cell-based; conditions: 1 mM at pHo 5.0, mean
T8 construct: expressed in transfected cells; host or cells: tk-ts13 cells, pMT3 vector
T8 sequence (Q7NDN8 44-359 Y144A): as the sequence (Q7NDN8 44-359 E223A) above, with Y101A, A180E counted along it
Protocol: as §1

[13] = biological target: T9, GLIC R105A (Gloeobacter violaceus, UniProt Q7NDN8, R147A); assay type: cell-based; conditions: 1 mM at pHo 5.0, mean
T9 construct: expressed in transfected cells; host or cells: tk-ts13 cells, pMT3 vector
T9 sequence (Q7NDN8 44-359 R147A): as the sequence (Q7NDN8 44-359 E223A) above, with R104A, A180E counted along it
Protocol: as §1

[14] = biological target: T10, GLIC E104Q (Gloeobacter violaceus, UniProt Q7NDN8, E146Q); assay type: cell-based; conditions: 1 mM at pHo 5.0, mean
T10 construct: expressed in transfected cells; host or cells: tk-ts13 cells, pMT3 vector
T10 sequence (Q7NDN8 44-359 E146Q): as the sequence (Q7NDN8 44-359 E223A) above, with E103Q, A180E counted along it
Protocol: as §1

[15] = 5 or 10 mM, pre-stimulation at pHo 5.0, 2–5 cells each
[16] = pHo 5.0, mean ± SD, read-out: IC50 (from individual cells)
[17] = pHo 5.5, mean ± SD, read-out: IC50 (from individual cells)
[18] = SUCCIN 10 mM at pHo 5.0, without ACET, after ACET 1 mM 50 s, one cell

For `NCC(=O)O` [glycine], the “effect on GLIC current” value [1, 15] was “no effect”.

`CCCC(=O)O` [BUTYR, Butanoic acid] was tested, and the “ratio of peak current values in the presence and in the absence of compound (Ipk[CBX@5.0]/Ipk[pHo 5.0])” value (shortened to “ratio of peak current values”) [2] was 0.257 and 0.332, the “current decay (h) time constant” value [2] was 0.541 s and 0.304 s and the “impact of the E181A substitution on the NAM effect” value (“impact of the E181A substitution” below) [3] was “no impact”. The “current in the presence of mono-CBX, % of control” value [1] was 13.6 % of control, the “current in the presence of mono-CBX, % of control (100*I CBX/I CONTROL)” value (“current … % of control (100*I CBX/I CONTROL)” below) [1] was 10.3 % of control and the IC50 [1, 16] was 219 µM. For the same compound, the “slope parameter nH (from individual cells)” value ([1]; pHo 5.5, mean ± SD) was 1.5, the IC50 [1, 17] was 150 µM and the peak current inhibition [4] was “almost fully abolished”.

In the case of `C[C@H](N)C(=O)O` [(L)‐alanine], the “effect on GLIC current” value [1, 15] is reported as “no effect”.

With `O=C(O)CCC(=O)O` [SUCCIN, Butanedioic acid] the “current in the presence of di-CBX, % of control” value [1] was 142 % of control, the “GLIC current with SUCCIN after ACET plateau, % of control current recorded immediately before ACET” value [1, 18] was 143 % of control and the “GLIC current with SUCCIN after ACET plateau, % of current recorded in the presence of ACET” value [1, 18] was 2170 % of ACET current. For the same compound, the “peak SUCCIN current (co-application with ACET), % of control current recorded immediately before ACET” value ([1]; SUCCIN 10 mM co-applied with ACET 1 mM, pHo 5.0, after 90, 120, 180 s of ACET, individual cells) was 132 % of control and 28 % of control and 44 % of control and the “peak SUCCIN current (co-application with ACET), % of ACET current” value ([1]; SUCCIN 10 mM co-applied with ACET 1 mM, pHo 5.0, individual cells) was 753 % of ACET current and 505 % of ACET current and 392 % of ACET current.

In the case of `C/C=C/C(=O)O` [CROTON, Butenoic acid], the “CROTON PAM effect after adding a binding pocket mutation to AA (excluding AA‐N152A)” value [5] is reported as “fully abolished”, the “decay constant tau of PAM ratio versus control current amplitude” value [6] is reported as 800 nA and the “ratio of peak current values” value [2] is reported as 0.228 and 0.244. For the same compound, the “current decay (h) time constant” value [2] was 0.695 s and 0.583 s, the “impact of the E181A substitution” value [3] was “no impact” and the “current in the presence of mono-CBX, % of control” value [1] was 13.6 % of control. The “current … % of control (100*I CBX/I CONTROL)” value [1] was 11.9 % of control, the IC50 [1, 16] was 191 µM and the peak current inhibition [4] was “almost fully abolished”.

For `NCCCC(=O)O` [GABA, γ‐amino butyrate], the “effect on GLIC current” value [1, 15] was “no effect”.

For `O=C(O)/C=C/c1ccc(O)c(O)c1` [CAFFE, caffeic acid], the “current in the presence of CAFFE, % of control” value ([1]; 0.1 mM at pHo 5.0, mean) was 17.4 % of control.

With `CC(=O)C(=O)O` [pyruvate] the “effect on GLIC current” value [1, 15] was “no effect”.

`O=C(O)/C=C/C(=O)O` [FUMAR, (E)‐but‐2‐enedioic acid] was tested, and the “current in the presence of di-CBX, % of control” value [1] was 194 % of control.

In the case of phosphate, the “effect on GLIC activity” value ([1]; 1 and 10 mM at pH 5.0, extracellular solution without CaCl2, n = 4 cells) is reported as “no effect”.

`CCCCC(=O)O` [VALER, Pentanoic acid] was tested, and the IC50 ([1]; IC50 (from individual cells), pHo 5.0, mean ± SD) was 289 µM.

For `NCCC(=O)O` [β‐alanine], the “effect on GLIC current” value [1, 15] was “no effect”.

`CCC(=O)O` [PROPION, Propanoic acid] was tested, and the “ratio of peak current values” value [2] was 0.380, the “current decay (h) time constant” value [2] was 1.47 s and the “activity on GLIC current (NAM effect)” value [1] was “active”. The “reversibility of negative modulation (slow components)” value [1] was 3 to 10 min, the “slope parameter nH (from individual cells)” value ([1]; pHo 5.5, mean ± SD) was 1.1 and the IC50 [1, 17] was 204 µM.

In the case of `O=C(O)CC(O)(CC(=O)O)C(=O)O` [citrate], the “effect on GLIC current” value ([1]; citrate used as buffer, conditions not given) is reported as “no effect”.

In the case of `CC(=O)O` [ACET, Ethanoic acid], the “current in the presence of mono-CBX, % of control” value [7] is reported as 9.7 % of control, the “current in the presence of mono-CBX, % of control” value [8] is reported as 14.6 % of control and the “current in the presence of mono-CBX, % of control” value [9] is reported as 22.7 % of control. For the same compound, the “ratio of peak current values” value [2] was 0.400 and 0.424 and 0.533 and 0.575, the “current decay (h) time constant” value [2] was 2.90 s and 3.13 s and 3.33 s and 5.62 s and the “current in the presence of mono-CBX, % of control” value [10] was 14.9 % of control. The “current in the presence of mono-CBX, % of control” value [11] was 71.4 % of control, the “current in the presence of mono-CBX, % of control” value [12] was 16.1 % of control and the “current in the presence of mono-CBX, % of control” value [13] was 17.1 % of control. For the same compound, the “current in the presence of mono-CBX, % of control” value [14] was 47.6 % of control, the “impact of the E181A substitution” value [3] was “no impact” and the “current in the presence of mono-CBX, % of control” value [1] was 12.2 % of control. For the same compound, the “current … % of control (100*I CBX/I CONTROL)” value [1] was 12.2 % of control, the “activity on GLIC current (NAM effect)” value [1] was “active” and the “GLIC current in the presence of ACET, % of control” value ([1]; ACET 1 mM at pHo 5.0, 50-180 s application, individual cells) was 17 % of control and 6.6 % of control and 5.5 % of control and 17.2 % of control and 11.3 % of control. For the same compound, the “reversibility of negative modulation (slow components)” value [1] was 3 to 10 min, the “slope parameter (fit of the mean value)” value ([1]; pHo 5.5, 10 cells) was 1.6 and the IC50 ([1]; pHo 5.5, 10 cells, read-out: IC50 (sigmoid fit of the mean value)) was 136 µM. For the same compound, the IC50 [1, 17] was 128 µM.

For `CC(O)C(=O)O` (stereo not drawn) [DL‐lactate], the “effect on GLIC current” value [1, 15] was “no effect”.
